Experimental data taken from patent US12673944B2, “Compounds having inhibitory activity against glucosylceramide synthase or pharmaceutically acceptable salt thereof, processes for preparing the same, and pharmaceutical compositions comprising the same” (YUHAN CORPORATION, priority 2019, dated 2026).

Assays:
[1] = tested on: GM1 production in Jurkat cells; test: cells; format: cell-based; conditions: Homo sapiens, Jurkat, 72 h
[2] = target: T1, glucosylceramide synthase (GCS) (Homo sapiens, UniProt Q16739); test: GCS enzyme inhibition assay (A549 cell lysate, NBD C6-ceramide, HPLC fluorescence); format: biochemical; conditions: inhibitory activity against GCS, 37° C., 90 minutes
T1 construct: The obtained supernatant was used; host or cells: A549 cells (lysate supernatant after sonication)
T1 sequence (Q16739 1-394): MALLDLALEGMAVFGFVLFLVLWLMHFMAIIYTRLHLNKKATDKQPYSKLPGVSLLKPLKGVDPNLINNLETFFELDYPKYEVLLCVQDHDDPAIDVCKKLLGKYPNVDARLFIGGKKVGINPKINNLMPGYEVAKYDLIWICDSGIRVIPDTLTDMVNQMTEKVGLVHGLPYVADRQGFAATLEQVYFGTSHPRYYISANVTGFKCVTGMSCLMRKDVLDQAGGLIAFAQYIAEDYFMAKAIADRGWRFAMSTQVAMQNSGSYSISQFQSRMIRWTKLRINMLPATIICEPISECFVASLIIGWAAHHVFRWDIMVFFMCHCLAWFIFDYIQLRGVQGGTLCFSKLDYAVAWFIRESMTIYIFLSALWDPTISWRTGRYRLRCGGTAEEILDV
Summary of the method: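 Percent GCS activity was derived from the GlcCer share of Cer plus GlcCer areas, scaled from ibiglustat (0%) to DMSO (100%). Enzyme came from sonicated A549 lysate in 50 mM HEPES pH 7.3; 90 min incubation at 37° C, chloroform/methanol stop and extraction.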

| SMILES | IC50 [1] | IC50 [2] |
| --- | --- | --- |
| CSc1ccc(-c2ccc3c(c2)C(NC(=O)O[C@@H]2CN4CCC2CC4)CCO3)cc1 (stereo partly drawn) [Example 97, (S)-quinuclidin-3-yl (6-(4-(methylthio)phenyl)chroman-4-yl)carbamate] | 502 nM | 11.5 nM |
| COc1ccc(-c2ccc3c(c2)OCC(C)(C)C3NC(=O)O[C@@H]2CN3CCC2CC3)c(Cl)c1 (stereo partly drawn) [Example 119, (S)-quinuclidin-3-yl (7-(2-chloro-4-methoxyphenyl)-3,3-dimethylchroman-4-yl)carbamate] | 1.25 nM | 0.65 nM |
| CC1(C)COc2cc(-c3cccc(C#N)c3)ccc2C1NC(=O)O[C@@H]1CN2CCC1CC2 (stereo partly drawn) [Example 170, (S)-quinuclidin-3-yl (7-(3-cyanophenyl)-3,3-dimethylchroman-4-yl)carbamate] | 5.83 nM | 0.42 nM |
| CC1(C)COc2cc(-c3ccc(OC(F)F)cc3)ccc2C1NC(=O)O[C@@H]1CN2CCC1CC2 (stereo partly drawn) [Example 218, (S)-quinuclidin-3-yl (7-(4-(difluoromethoxy)phenyl)-3,3-dimethylchroman-4-yl)carbamate] | 2.69 nM | 0.4 nM |
| CC1(C)COc2cc(-c3ccc(C4CCOCC4)cc3)ccc2C1NC(=O)O[C@@H]1CN2CCC1CC2 (stereo partly drawn) [Example 202, (S)-quinuclidin-3-yl (3,3-dimethyl-7-(4-(tetrahydro-2H-pyran-4-yl)phenyl)chroman-4-yl)carbamate] | 0.47 nM | 0.28 nM |
| CC1(C)COc2cc(-c3ccc4c(c3)OCCCO4)ccc2C1NC(=O)O[C@@H]1CN2CCC1CC2 (stereo partly drawn) [Example 190, (S)-quinuclidin-3-yl (7-(3,4-dihydro-2H-benzo[b][1,4]dioxepin-7-yl)-3,3-dimethylchroman-4-yl)carbamate] | 0.03 nM | 0.29 nM |
| O=C(NC1CCOc2cc(-c3ccc4cc[nH]c4c3)ccc21)O[C@@H]1CN2CCC1CC2 (stereo partly drawn) [Example 45, (S)-quinuclidin-3-yl (7-(1H-indol-6-yl)chroman-4-yl)carbamate] | 26.2 nM | 4.13 nM |
| COc1ccc(-c2ccc3c(c2)OCC(C)(C)C3NC(=O)O[C@@H]2CN3CCC2CC3)c(OC)c1 (stereo partly drawn) [Example 125, (S)-quinuclidin-3-yl (7-(2,4-dimethoxyphenyl)-3,3-dimethylchroman-4-yl)carbamate] | 3.85 nM | 0.86 nM |
| Cc1cc(-c2ccc3c(c2)OCCC3NC(=O)O[C@@H]2CN3CCC2CC3)ccc1N1CCOCC1 (stereo partly drawn) [Example 75, (S)-quinuclidin-3-yl (7-(3-methyl-4-morpholinophenyl)chroman-4-yl)carbamate] | 23.6 nM | 2.44 nM |
| CN(C)c1cc(-c2ccc3c(c2)OCC(C)(C)C3NC(=O)O[C@@H]2CN3CCC2CC3)ccc1F (stereo partly drawn) [Example 171, (S)-quinuclidin-3-yl (7-(3-(dimethylamino)-4-fluorophenyl)-3,3-dimethylchroman-4-yl)carbamate] | 5.23 nM | 0.79 nM |
| O=C(NC1CCOc2cc(-c3cc(Cl)ccc3Cl)ccc21)O[C@@H]1CN2CCC1CC2 (stereo partly drawn) [Example 27, (S)-quinuclidin-3-yl (7-(2,5-dichlorophenyl)chroman-4-yl)carbamate] | 0.54 nM | 0.75 nM |
| CC1(C)COc2cc(-c3cc4ccccc4o3)ccc2C1NC(=O)O[C@@H]1CN2CCC1CC2 (stereo partly drawn) [Example 183, (S)-quinuclidin-3-yl (7-(benzofuran-2-yl)-3,3-dimethylchroman-4-yl)carbamate] | 6.43 nM | 1.22 nM |
| CSc1cccc(-c2ccc3c(c2)C(NC(=O)O[C@@H]2CN4CCC2CC4)CCO3)c1 (stereo partly drawn) [Example 98, (S)-quinuclidin-3-yl (6-(3-(methylthio)phenyl)chroman-4-yl)carbamate] | 525 nM | 14.9 nM |
| COc1cc(-c2ccc3c(c2)OCC(C)(C)C3NC(=O)O[C@@H]2CN3CCC2CC3)ccn1 (stereo partly drawn) [Example 203, (S)-quinuclidin-3-yl (7-(2-methoxypyridin-4-yl)-3,3-dimethylchroman-4-yl)carbamate] | 8.03 nM | 0.72 nM |
| COc1cncc(-c2ccc3c(c2)OCC(C)(C)C3NC(=O)O[C@@H]2CN3CCC2CC3)c1 (stereo partly drawn) [Example 207, (S)-quinuclidin-3-yl (7-(5-methoxypyridin-3-yl)-3,3-dimethylchroman-4-yl)carbamate] | 1.06 nM | 1.12 nM |
| O=C(NC1CCSc2cc(-c3cc(Cl)ccc3Cl)ccc21)O[C@@H]1CN2CCC1CC2 (stereo partly drawn) [Example 323, (S)-quinuclidin-3-yl (7-(2,5-dichlorophenyl)thiochroman-4-yl)carbamate] | 26.3 nM | 0.63 nM |
| COc1ncc(-c2ccc3c(c2)OCCC3NC(=O)O[C@@H]2CN3CCC2CC3)cc1Cl (stereo partly drawn) [Example 80, (S)-quinuclidin-3-yl (7-(5-chloro-6-methoxypyridin-3-yl)chroman-4-yl)carbamate] | 44.2 nM | 5.75 nM |

| SMILES | IC50 [1] | IC50 [2] |
| --- | --- | --- |
| CC1(C)COc2cc(/C=C/c3ccc(C(F)(F)F)cc3)ccc2C1NC(=O)O[C@@H]1CN2CCC1CC2 (stereo partly drawn) [Example 284, (S)-quinuclidin-3-yl (3,3-dimethyl-7-((E)-4-(trifluoromethyl)styryl)chroman-4-yl)carbamate] | 0.5 nM | 0.91 nM |
| COc1ccc(-c2ccc3c(c2)OCC(C)(C)C3NC(=O)O[C@@H]2CN3CCC2CC3)cc1C (stereo partly drawn) [Example 115, (S)-quinuclidin-3-yl (7-(4-methoxy-3-methylphenyl)-3,3-dimethylchroman-4-yl)carbamate] | 3.72 nM | 1.88 nM |
| Cc1cc(-c2ccc3c(c2)OCC(C)(C)C3NC(=O)O[C@@H]2CN3CCC2CC3)ccc1F (stereo partly drawn) [Example 229, (S)-quinuclidin-3-yl (7-(4-fluoro-3-methylphenyl)-3,3-dimethylchroman-4-yl)carbamate] | 2.1 nM | 0.71 nM |
| O=C(NC1CCOc2cc(-c3c[nH]c4ccccc34)ccc21)O[C@@H]1CN2CCC1CC2 (stereo partly drawn) [Example 46, (S)-quinuclidin-3-yl (7-(1H-indol-3-yl)chroman-4-yl)carbamate] | 20.5 nM | 4.08 nM |
| CC(C)(C)c1cccc(-c2ccc3c(c2)OCCC3(C)NC(=O)O[C@@H]2CN3CCC2CC3)c1 (stereo partly drawn) [Example 310, (S)-quinuclidin-3-yl (7-(3-(tert-butyl)phenyl)-4-methylchroman-4-yl)carbamate] | 0.2 nM | 0.23 nM |
| CC1(C)COc2cc(-c3ccc(F)c(C(F)(F)F)c3)ccc2C1NC(=O)O[C@@H]1CN2CCC1CC2 (stereo partly drawn) [Example 175, (S)-quinuclidin-3-yl (7-(4-fluoro-3-(trifluoromethyl)phenyl)-3,3-dimethylchroman-4-yl)carbamate] | 2.2 nM | 0.71 nM |
| O=C(NC1CCSc2cc(-c3ccc4c(c3)OC(F)(F)O4)ccc21)O[C@@H]1CN2CCC1CC2 (stereo partly drawn) [Example 327, (S)-quinuclidin-3-yl (7-(2,2-difluorobenzo[d][1,3]dioxol-5-yl)thiochroman-4-yl)carbamate] | 37.6 nM | 2.7 nM |
| COc1ccc(-c2cc3c(cc2F)C(NC(=O)O[C@@H]2CN4CCC2CC4)C(C)(C)CO3)c(C)c1 (stereo partly drawn) [Example 342, (S)-quinuclidin-3-yl (6-fluoro-7-(4-methoxy-2-methylphenyl)-3,3-dimethylchroman-4-yl)carbamate] | 3.5 nM | 0.45 nM |
| Cn1c(-c2ccc3c(c2)OCCC3NC(=O)O[C@@H]2CN3CCC2CC3)cc2ccccc21 (stereo partly drawn) [Example 52, (S)-quinuclidin-3-yl (7-(1-methyl-1H-indol-2-yl)chroman-4-yl)carbamate] | 24.8 nM | 7.06 nM |
| COCCOc1cccc(-c2ccc3c(c2)OCC(C)(C)C3NC(=O)O[C@@H]2CN3CCC2CC3)c1 (stereo partly drawn) [Example 110, (S)-quinuclidin-3-yl (7-(3-(2-methoxyethoxy)phenyl)-3,3-dimethylchroman-4-yl)carbamate] | 0.12 nM | 1.3 nM |
| C=Cc1ccccc1-c1ccc2c(c1)OCC(C)(C)C2NC(=O)O[C@@H]1CN2CCC1CC2 (stereo partly drawn) [Example 274, (S)-quinuclidin-3-yl (3,3-dimethyl-7-(2-vinylphenyl)chroman-4-yl)carbamate] | 1.7 nM | 0.58 nM |
| O=C(NC1CCOc2cc(C3=CCCO3)ccc21)O[C@@H]1CN2CCC1CC2 (stereo partly drawn) [Example 38, (S)-quinuclidin-3-yl (7-(2,3-dihydrofuran-5-yl)chroman-4-yl)carbamate] | 14.5 nM | 3.02 nM |
| CSc1cccc(-c2ccc3c(c2)SCCC3NC(=O)O[C@@H]2CN3CCC2CC3)c1 (stereo partly drawn) [Example 325, (S)-quinuclidin-3-yl (7-(3-(methylthio)phenyl)thiochroman-4-yl)carbamate] | 6.13 nM | 0.58 nM |
| COc1ccc(-c2ccc3c(c2)OCC(C)(C)C3NC(=O)O[C@@H]2CN3CCC2CC3)cn1 (stereo partly drawn) [Example 241, (S)-quinuclidin-3-yl (7-(6-methoxypyridin-3-yl)-3,3-dimethylchroman-4-yl)carbamate] | 24.1 nM | 0.81 nM |
| Cc1ccc(-c2ccc3c(c2)C(NC(=O)O[C@@H]2CN4CCC2CC4)CCO3)cc1 (stereo partly drawn) [Example 99, (S)-quinuclidin-3-yl (6-(p-tolyl)chroman-4-yl)carbamate] | 322 nM | 19.2 nM |
| CN1CCC(NC(=O)O[C@@H]2CN3CCC2CC3)c2ccc(-c3cccc(C(C)(C)C)c3)cc21 (stereo partly drawn) [Example 314, (S)-quinuclidin-3-yl (7-(3-(tert-butyl)phenyl)-1-methyl-1,2,3,4-tetrahydroquinolin-4-yl)carbamate] | 56.3 nM | 6.47 nM |
